The values below come from PubChem BioAssay AID180 (DTP/NCI, 2004).

The assay concerns BDF1 mice, Adenocarcinoma 755 s.c., tumor weight T/C. In words: NCI In Vivo Anticancer Drug Screen. Data for tumor model Adenocarcinoma 755 (subcutaneous) in B6D2F1 (BDF1) mice. The following applies: endpoint: mean tumor weight, higher = larger tumour. The procedure, abridged:
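In vivo antitumor screen on a transplantable tumor line. Result equals the measure in compound-treated animals divided by the same measure in vehicle controls.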

[1] abbreviates: dose: 15.0 mg/kg/injection, schedule: Q01DX011 (ip), vehicle: methylcellulose (MC).
Where [2] appears, read: dose: 3.0 mg/kg/injection, schedule: Q01DX011 (ip), vehicle: methylcellulose (MC).
Where [3] appears, read: dose: 6.0 mg/kg/injection, schedule: Q01DX011 (ip), vehicle: methylcellulose (MC).
[4] abbreviates: dose: 3.0 mg/kg/injection, schedule: Q01DX011 (ip), vehicle: carboxymethylcellulose (CMC).
Where [5] appears, read: dose: 5.0 mg/kg/injection, schedule: Q01DX011 (ip), vehicle: carboxymethylcellulose (CMC).
The mark [6] stands for this setting: dose: 10.0 mg/kg/injection, schedule: Q01DX011 (ip), vehicle: carboxymethylcellulose (CMC).

SMILES strings stand for the structures. Values joined by “and” are separate entries in the source; they are usually repeats but may differ in a detail not shown here. Equal entries are not always repeated.

In general, T/C refers to the result in the treated group divided by that in the control group, in per cent. Turning to `O=[N+]([O-])c1ccc(C=Nc2ccc3c(c2)C(Br)c2ccccc2-3)cc1` (configuration not stated), the T/C is 113 % of control (dose: 28.0 mg/kg/injection, schedule: Q01DX011 (ip), vehicle: saline); 96 % of control (dose: 55.0 mg/kg/injection, schedule: Q01DX011 (ip), vehicle: saline); 73 % of control (dose: 110.0 mg/kg/injection, schedule: Q01DX011 (ip), vehicle: saline); 40 % of control and 44 % of control (dose: 220.0 mg/kg/injection, schedule: Q01DX011 (ip), vehicle: saline); 39 % of control (dose: 440.0 mg/kg/injection, schedule: Q01DX011 (ip), vehicle: saline).

On to `Nc1nsnc1C(=O)O`, for which the T/C is 80 % of control (dose: 93.0 mg/kg/injection, schedule: Q01DX011 (ip), vehicle: carboxymethylcellulose (CMC)) and 98 % of control (dose: 187.0 mg/kg/injection, schedule: Q01DX011 (ip), vehicle: carboxymethylcellulose (CMC)).

For `Cc1ccccc1Nc1cc(Cl)nc(N)n1`, the T/C is 73 % of control under setting [1]; 85 % of control (dose: 31.0 mg/kg/injection, schedule: Q01DX011 (ip), vehicle: methylcellulose (MC)); 75 % of control (dose: 62.0 mg/kg/injection, schedule: Q01DX011 (ip), vehicle: methylcellulose (MC)); 120 % of control (dose: 125.0 mg/kg/injection, schedule: Q01DX011 (ip), vehicle: methylcellulose (MC)); 93 % of control (dose: 250.0 mg/kg/injection, schedule: Q01DX011 (ip), vehicle: methylcellulose (MC)).

On to `C[C@]12C=CC(=O)C=C1[C@@H](F)C[C@@H]1[C@@H]2[C@@H](O)C[C@@]2(C)[C@H]1CC[C@]2(O)C(=O)CO`, for which the T/C under setting [2] was 63 % of control and 64 % of control; the T/C (dose: 3.0 mg/kg/injection, schedule: Q01DX011 (sc), vehicle: steriod suspending solution) is 51 % of control; the T/C under setting [3] is 41 % of control and 43 % of control; the T/C (dose: 6.0 mg/kg/injection, schedule: Q01DX011 (sc), vehicle: steriod suspending solution) was 53 % of control; the T/C (dose: 12.0 mg/kg/injection, schedule: Q01DX011 (ip), vehicle: methylcellulose (MC)) is 37 % of control and 41 % of control; the T/C (dose: 12.0 mg/kg/injection, schedule: Q01DX011 (sc), vehicle: steriod suspending solution) was 46 % of control. Moreover, the T/C was 30 % of control and 40 % of control (dose: 24.0 mg/kg/injection, schedule: Q01DX011 (ip), vehicle: methylcellulose (MC)); 30 % of control (dose: 24.0 mg/kg/injection, schedule: Q01DX011 (sc), vehicle: steriod suspending solution); 23 % of control (dose: 48.0 mg/kg/injection, schedule: Q01DX011 (sc), vehicle: steriod suspending solution).

For `C[C@]12CCC(=O)C=C1CC[C@@H]1[C@@H]2[C@@H](O)C[C@@]2(C)[C@H]1CC[C@]2(O)C(=O)COC(=O)COCC(=O)O`, the T/C was 53 % of control (dose: 50.0 mg/kg/injection, schedule: Q01DX011 (ip), vehicle: steriod suspending solution); 54 % of control (dose: 50.0 mg/kg/injection, schedule: Q01DX011 (sc), vehicle: steriod suspending solution); 22 % of control (dose: 100.0 mg/kg/injection, schedule: Q01DX011 (ip), vehicle: steriod suspending solution); 62 % of control (dose: 100.0 mg/kg/injection, schedule: Q01DX011 (sc), vehicle: steriod suspending solution); 12 % of control (dose: 200.0 mg/kg/injection, schedule: Q01DX011 (ip), vehicle: steriod suspending solution); 56 % of control (dose: 200.0 mg/kg/injection, schedule: Q01DX011 (sc), vehicle: steriod suspending solution). For the same compound, the T/C (dose: 400.0 mg/kg/injection, schedule: Q01DX011 (sc), vehicle: steriod suspending solution) is 31 % of control.

Turning to `COCCCNS(=O)(=O)c1ncnc2nc[nH]c12`, the T/C is, setting by setting: (dose: 1.0 mg/kg/injection, schedule: Q01DX011 (ip), vehicle: carboxymethylcellulose (CMC)) 79 % of control; (dose: 1.0 mg/kg/injection, schedule: Q01DX011 (ip), vehicle: saline) 74 % of control; (dose: 2.5 mg/kg/injection, schedule: Q01DX011 (ip), vehicle: saline) 96 % of control; under setting [4], 63 % of control and 81 % of control; (dose: 3.0 mg/kg/injection, schedule: Q01DX011 (ip), vehicle: saline) 163 % of control; under setting [5], 86 % of control. In addition, the T/C by setting is: (dose: 6.0 mg/kg/injection, schedule: Q01DX011 (ip), vehicle: other) 105 % of control; under setting [6], 80 % of control; (dose: 12.0 mg/kg/injection, schedule: Q01DX011 (ip), vehicle: other) 43 % of control; (dose: 12.5 mg/kg/injection, schedule: Q01DX011 (ip), vehicle: carboxymethylcellulose (CMC)) 8 % of control (2×) and 30 % of control; (dose: 12.5 mg/kg/injection, schedule: Q01DX011 (ip), vehicle: saline) 24 % of control; (dose: 25.0 mg/kg/injection, schedule: Q01DX011 (ip), vehicle: other) 37 % of control. The T/C is 5 % of control and 9 % of control (dose: 25.0 mg/kg/injection, schedule: Q01DX011 (ip), vehicle: saline); 3 % of control and 4 % of control (dose: 50.0 mg/kg/injection, schedule: Q01DX011 (ip), vehicle: carboxymethylcellulose (CMC)); 5 % of control (dose: 50.0 mg/kg/injection, schedule: Q01DX011 (ip), vehicle: saline); 3 % of control (dose: 100.0 mg/kg/injection, schedule: Q01DX011 (ip), vehicle: carboxymethylcellulose (CMC)); 7 % of control (dose: 100.0 mg/kg/injection, schedule: Q01DX011 (ip), vehicle: other); 1 % of control (dose: 200.0 mg/kg/injection, schedule: Q01DX011 (ip), vehicle: saline).

As for `CSc1nc(N)nc2c1ncn2C1OC(CO)C(O)C1O` (configuration not stated), the T/C is, setting by setting: (dose: 8.2 mg/kg/injection, schedule: Q01DX011 (ip), vehicle: carboxymethylcellulose (CMC)) 82 % of control; (dose: 16.5 mg/kg/injection, schedule: Q01DX011 (ip), vehicle: carboxymethylcellulose (CMC)) 53 % of control; (dose: 33.0 mg/kg/injection, schedule: Q01DX011 (ip), vehicle: carboxymethylcellulose (CMC)) 20 % of control; (dose: 66.0 mg/kg/injection, schedule: Q01DX011 (ip), vehicle: carboxymethylcellulose (CMC)) 9 % of control; (dose: 66.25 mg/kg/injection, schedule: Q01DX011 (ip), vehicle: methylcellulose (MC)) 9 % of control; (dose: 112.5 mg/kg/injection, schedule: Q01DX011 (ip), vehicle: methylcellulose (MC)) 4 % of control.

`COc1ccc(CSc2ncnc3nc[nH]c23)cc1`: the T/C is, setting by setting: (dose: 1.5 mg/kg/injection, schedule: Q01DX011 (ip), vehicle: carboxymethylcellulose (CMC)) 89 % of control; under setting [4], 88 % of control; (dose: 6.0 mg/kg/injection, schedule: Q01DX011 (ip), vehicle: carboxymethylcellulose (CMC)) 65 % of control; (dose: 7.8 mg/kg/injection, schedule: Q01DX011 (ip), vehicle: methylcellulose (MC)) 58 % of control; (dose: 15.6 mg/kg/injection, schedule: Q01DX011 (ip), vehicle: methylcellulose (MC)) 13 % of control; (dose: 31.2 mg/kg/injection, schedule: Q01DX011 (ip), vehicle: methylcellulose (MC)) 10 % of control.

As for `CN[C@H]1CCc2cc(OC)c(OC)c(OC)c2-c2ccc(OC)c(=O)cc21`, the T/C is, setting by setting: (dose: 0.75 mg/kg/injection, schedule: Q01DX011 (ip), vehicle: methylcellulose (MC)) 44 % of control; (dose: 1.5 mg/kg/injection, schedule: Q01DX011 (ip), vehicle: methylcellulose (MC)) 60 % of control; under setting [2], 56 % of control; under setting [3], 7 % of control.

As to `C=CC(O)CN1CC1=C` (configuration not stated), the T/C runs as follows: (dose: 1.9 mg/kg/injection, schedule: Q01DX011 (ip), vehicle: methylcellulose (MC)) 77 % of control; (dose: 3.75 mg/kg/injection, schedule: Q01DX011 (ip), vehicle: methylcellulose (MC)) 111 % of control; (dose: 7.5 mg/kg/injection, schedule: Q01DX011 (ip), vehicle: methylcellulose (MC)) 73 % of control; under setting [1], 21 % of control.

Take `CSc1nc(N)nc2c1n(C)c[n+]2C`: the T/C by setting is: (dose: 30.0 mg/kg/injection, schedule: Q01DX011 (ip), vehicle: carboxymethylcellulose (CMC)) 97 % of control; (dose: 60.0 mg/kg/injection, schedule: Q01DX011 (ip), vehicle: carboxymethylcellulose (CMC)) 99 % of control; (dose: 120.0 mg/kg/injection, schedule: Q01DX011 (ip), vehicle: carboxymethylcellulose (CMC)) 66 % of control; (dose: 240.0 mg/kg/injection, schedule: Q01DX011 (ip), vehicle: carboxymethylcellulose (CMC)) 89 % of control.

On to `S=c1nc[nH]c2c1ncn2C1CCCCO1` (configuration not stated), for which the T/C reads like this: under setting [5], 29 % of control; under setting [6], 16 % of control.
